Reference: US10080366B2, “Agent for increasing sugar content in fruit” (RIKEN, priority 2012, dated 2018)
Read-outs that look alike come from different tables or passages of the source.

Assays:
[1] = system: harvested fruit of grape (variety: Barikan); details: for Sugar content (%) 8 days later, actually measured value / Mass (g) 6 days later (Jun. 8) / Mass (g) 8 days later (Jun. 10): 25° C.; for Mass (g) 6 days later (Jun. 8) / Mass (g) 8 days later (Jun. 10): mass 100 g on date of application; for Sugar content (%) 8 days later, calculated value: calculated from decrease in mass; for Sugar content (%) on date of application (Jun. 2): before application
Method: The fruit of grape was maintained in an air-conditioned greenhouse (temperature: 25° C.), and measured for the mass over time. The sugar content of the fruit was measured before the application and 8 days after the application with a sugar content meter. Next, on the assumption that the change in the mass of the fruit was entirely due to the change in water content, calculated values of the amount of decrease in mass and the sugar content on the date (June 2) of the application were determined […] by using the following calculation formula. (Calculated as follows: the sugar content (%) calculated value))=the sugar content (%) before application×the mass (g) on the date of application/the mass (g) on the date of measurement))

[2] = system: Mikan; details: 6 days after treatment
[3] = system: fruit of grape (variety: Red Globe); details: for Sugar content (%) May 16: date of application; for mass of fruit as % of the mass on the date of application: 17 days later; for Sugar content (%) Jun. 2 Calculated value: calculated from decrease in mass
Method: The mass of fruit of grape (variety: Red Globe) purchased on the market was measured. Then, the prepared agents for increasing a sugar content in a fruit were applied by spraying to the fruit of grape, which was then allowed to stand in an air-conditioned greenhouse (temperature: 25° C.). With the mass of the grape on the date of application being 100 g, the mass of the grape after the application was measured over time (date of application: May 16, 2011; dates of test: May 19, May 23, May 27, May 30, and Jun. 2, 2011). Next, on the assumption that the change in mass of the fruit was entirely due to the change in water content, the calculated value of the sugar content was determined from the amount of decrease in mass and the sugar content on the date […] of the application (calculated as follows: “the sugar content (calculated value)=the sugar content (%) on the date of application×the mass (g) on the date of application/the mass (g) on the date of measurement”). In addition, as a control, the mass of untreated grape was measured in the same manner. The results are shown in Tables 7 and 8 and FIGS. 12 to 14.

[4] = system: clusters of grape (variety: Crimson); assay: Estimated transpiration ratio of grape clusters (Example 9); type: in vivo; details: 10 g/L; 8 days after treatment
[5] = system: Tomato; details: 6 days after treatment
[6] = system: fruit of grape (variety: Red Globe)
Method: An agent for increasing a sugar content in a fruit (containing Sorbon T-20 as a spreader/sticker at a final concentration of 200 μL/L) diluted with water to have a potassium hydrogen carbonate concentration of 10 g/L was prepared. The mass of fruit of grape (variety: Red Globe) purchased on the market was measured. Then, the prepared agent for increasing a sugar content in a fruit was applied by spraying to the fruit of grape. Then, the fruit of grape was allowed to stand in an air-conditioned greenhouse (temperature: 25° C.), and the mass was measured over time (date of application: Apr. 27, 2011; dates of test: May 2, 2011, May 6, 2011, May 9, 2011, May 11, 2011, May 13, 2011, and May 16, 2011). In addition, as a control, the mass of untreated grape was measured on each date of measurement in the same manner.
On the basis of the measured mass, the estimated amount (cumulative value) of transpiration and the estimated amount of transpiration per day were calculated. The results are shown in Tables 5 and 6 and FIGS. 10 and 11.
Note that the vertical axis in FIG. 10 represents the mass (g) of the fruit of grape on each of the dates of measurement per 100 g of the fruit of grape on the date of application, and the vertical axis in FIG. 11 represents the estimated amount (g) of transpiration on each of the dates of measurement per 100 g of the fruit of grape on the date of application. The estimated amount (g) of transpiration on each of the dates of measurement per 100 g of the fruit of grape on the date of application=(the mass (g) of the fruit of grape on the date of application−the mass (g) of the fruit of grape on the date of measurement)/the mass of the fruit of grape on the date of application×100

[7] = 10 g/L, May 19, 100 g on May 16
[8] = approximately 3 weeks later (19 days later)

O=C([O-])[O-].[K+].[K+] [Potassium carbonate, potassium carbonate]
decrease of mass of fruit in 8 days (June 2 to June 10) ([1]; 10 g/L): 25.56% | Sugar content (%) 8 days later, actually measured value ([1]; 10 g/L): 24.5% | Mass (g) 6 days later (Jun. 8) ([1]; 10 g/L): 80.7 g | Mass (g) 8 days later (Jun. 10) ([1]; 10 g/L): 74.5 g | action to increase the sugar content in the fruit (comparison) ([1]; 10 g/L, 8 days): the best | Sugar content (%) 8 days later, calculated value ([1]; 10 g/L): 24.2% | Sugar content (%) on date of application (Jun. 2) [1]: 18.0% | Sugar content (%) on date of application (Jun. 2) ([1]; listed as potassium carbonate): 18% | Ratio (%) of decrease in body weight of fruit ([2]; dilution ratio 50 (20 g/L)): 12.0% | Ratio (%) of decrease in body weight of fruit ([2]; dilution ratio 100 (10 g/L)): 12.4% | Sugar content (%) May 16 ([3]; 5 g/L group): 17.6% | mass of fruit as % of the mass on the date of application ([3]; 5 g/L): 66.6% | mass (g) of the fruit ([3]; 5 g/L, Jun. 2): 66.6 g | mass (g) of the fruit ([3]; 5 g/L, May 19, 100 g on May 16): 90.8 g | mass (g) of the fruit ([3]; 5 g/L, May 23): 84.5 g | mass (g) of the fruit ([3]; 5 g/L, May 27): 77 g | mass (g) of the fruit ([3]; 5 g/L, May 30): 72.1 g | Sugar content (%) Jun. 2 Calculated value ([3]; 5 g/L): 26.5% | Sugar content (%) May 16 ([3]; 10 g/L group): 18.2% | mass of fruit as % of the mass on the date of application ([3]; 10 g/L): 65% | mass (g) of the fruit ([3]; 10 g/L, Jun. 2): 65 g | mass (g) of the fruit [3, 7]: 90.6 g | mass (g) of the fruit ([3]; 10 g/L, May 23): 83.9 g | mass (g) of the fruit ([3]; 10 g/L, May 27): 75.9 g | mass (g) of the fruit ([3]; 10 g/L, May 30): 70.6 g | Sugar content (%) Jun. 2 Calculated value ([3]; 10 g/L): 28% | Estimated transpiration ratio (%) Average [4]: 33% | Estimated transpiration ratio (%) First [4]: 35% | Estimated transpiration ratio (%) Second [4]: 31% | Ratio (%) of decrease in body weight of fruit ([5]; dilution ratio 50 (20 g/L)): 21.1% | Ratio (%) of decrease in body weight of fruit ([5]; dilution ratio 100 (10 g/L)): 18.0% | sugar concentration in the fruit (suggested) ([6]; 2 weeks later, assuming 20% on April 27, 20/41.4): exceeded 48% | Estimated amount (g) of transpiration per 100 g of fruit on date of application ([6]; 5 days later): 18.8 g | Mass (g) of fruit per 100 g of fruit on date of application ([6]; 5 days later (applied Apr. 27)): 81.2 g | Estimated amount (g) of transpiration per 100 g of fruit on date of application ([6]; 9 days later): 31.5 g | Mass (g) of fruit per 100 g of fruit on date of application ([6]; 9 days later): 68.5 g | Estimated amount (g) of transpiration per 100 g of fruit on date of application ([6]; 12 days later): 40 g | Mass (g) of fruit per 100 g of fruit on date of application ([6]; 12 days later): 60 g | Estimated amount (g) of transpiration per 100 g of fruit on date of application ([6]; 14 days later): 45.8 g | Mass (g) of fruit per 100 g of fruit on date of application ([6]; 14 days later): 54.2 g | Estimated amount (g) of transpiration per 100 g of fruit on date of application ([6]; 16 days later): 51.3 g | Mass (g) of fruit per 100 g of fruit on date of application ([6]; 16 days later): 48.7 g | Estimated amount (g) of transpiration per 100 g of fruit on date of application ([6]; 19 days later): 58.6 g | Mass (g) of fruit per 100 g of fruit on date of application ([6]; 19 days later): 41.4 g | mass as % of the mass on the date of application [6, 8]: 41.4% | ratio of transpiration of the fruit [6, 8]: 58.6% | mass relative to mass on the date of application ([6]; in 2 weeks): approximately ½ | estimated amount of transpiration relative to untreated fruit ([6]; in vivo): two times or more of that of the untreated fruit

O=P([O-])([O-])OP(=O)([O-])[O-].[K+].[K+].[K+].[K+] [Tetrapotassium pyrophosphate, tetrapotassium pyrophosphate]
decrease of mass of fruit in 8 days (June 2 to June 10) ([1]; 10 g/L): 19.1% | Sugar content (%) 8 days later, actually measured value ([1]; 10 g/L): 21.5% | Mass (g) 6 days later (Jun. 8) ([1]; 10 g/L): 85.7 g | Mass (g) 8 days later (Jun. 10) ([1]; 10 g/L): 80.9 g | Sugar content (%) 8 days later, calculated value ([1]; 10 g/L): 21.6% | Sugar content (%) on date of application (Jun. 2) [1]: 17.5% | Ratio (%) of decrease in body weight of fruit ([2]; dilution ratio 100 (10 g/L)): 10.4% | ratio of decrease in mass per day (comparison) ([3]; 10 g/L): highest ratio of decrease in mass per day | Sugar content (%) May 16 ([3]; 10 g/L group): 16.6% | mass of fruit as % of the mass on the date of application ([3]; 10 g/L): 57.3% | mass (g) of the fruit ([3]; 10 g/L, Jun. 2): 57.3 g | mass (g) of the fruit [3, 7]: 86.7 g | mass (g) of the fruit ([3]; 10 g/L, May 23): 78.9 g | mass (g) of the fruit ([3]; 10 g/L, May 27): 69.8 g | mass (g) of the fruit ([3]; 10 g/L, May 30): 63.8 g | Sugar content (%) Jun. 2 Calculated value ([3]; 10 g/L): 29% | Estimated transpiration ratio (%) Average [4]: 32% | Estimated transpiration ratio (%) First [4]: 32% | Ratio (%) of decrease in body weight of fruit ([5]; dilution ratio 100 (10 g/L)): 13.8%
